Molecules are shown by their SMILES. Where two headings read alike, the source gives them in different places. Marks after values point to notes of the source that are not given here.

The test system of test [1] is MCAO rats. In words: Cerebral infarction, cerebral edema and nerve function of rats with focal cerebral ischemia (MCAO). It counts as in vivo, SD rats. Conditions: MCAO rats; for inhibition at 10 mg/kg/day: Rattus norvegicus.
In test [2] the test system is arteriovenous bypass thrombosis in rats. As to the kind of experiment: Effect on arteriovenous bypass thrombosis in rats. It counts as in vivo, SD rats. Conditions: 10 mg/kg/day tail vein 7 days; for inhibition at 10 mg/kg/day: Rattus norvegicus, 168 h, vs model group. In a few lines:
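Male SD rats (250-280 g) dosed 10 mg/kg/day i.v. (tail vein, saline with 1% DMSO) for 7 days, n=8; vehicle controls. Two hours after the last dose, under pentobarbital, a carotid–jugular shunt holding a weighed suture ran for 15 min; thrombus wet and dry (24 h air-dried) weights taken.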

[3] abbreviates: 10 mg/kg/day iv 3 days (combinations equimolar), first dose 2 h after reperfusion.

Regarding `CCCC[C@H](OC(C)=O)c1ccccc1C(=O)O` [I1s, L-Arginine (S)-2-(1-Acetoxy-n-Pentyl) Benzoate], the Cerebral edema in test [1] (setting [3]) was 0.18 ± 3.96%. Also, the Infarct volume in test [1] (setting [3]) came to 9.12 ± 1.18%. In addition, the “Neurological function of rats with focal cerebral ischemia” value in test [1] (10 mg/kg/day iv, 2 h after reperfusion) is on record as “significant neurological improvement effects”. Also, the inhibition – broadly, how much of the control response was suppressed – at 10 mg/kg/day in test [1] (10 mg/kg/day iv 3 days (combinations equimolar), first dose 2 h after reperfusion, read-out: Inhibition rate of cerebral edema) turned out to be 98.8%; in test [1] (10 mg/kg/day iv 3 days (combinations equimolar), first dose 2 h after reperfusion, read-out: Inhibition rate of infarct volume), 78.2%; in test [2] (read-out: Inhibition rate (dry weight of thrombus)), 45%; in test [2] (read-out: Inhibition rate (wet weight of thrombus)), 44.1%. The “Dry weight of thrombus” value in test [2] (2 h after last dose) was found to be 5.52 ± 0.44. Besides, the “Wet weight of thrombus” value in test [2] (2 h after last dose) is recorded as 20.23 ± 1.25**^.

These data come from US11814352B2, “Salts formed by 2-(1-acyloxy-n-pentyl) benzoic acid and basic amino acid or aminoguanidine, and preparation method and application thereof” (JIANGSU KANION PHARMACEUTICAL CO., LTD., priority 2018, dated 2023).
